Measured values taken from article PMC6017838, “Synthesis and Anticandidal Activity of New Imidazole-Chalcones” (Molecules : A Journal of Synthetic Chemistry and Natural …, 2018).
≈ marks a conversion by molar mass, not a printed value.

Columns and labels:
[1] = system: C. parapsilosis (ATCC 22019); assay: Anticandidal activity, EUCAST EDef 7.1 broth dilution with resazurin; type: cell-based; conditions: Lodderomyces parapsilosis, ATCC22019, RPMI pH 7, 24 h
Protocol: (§1) Synthesized compounds (3a–3o) were evaluated for anticandidal activity against C. albicans (ATCC 24433), C. krusei (ATCC 6258), C. parapsilosis (ATCC 22019), and C. glabrata (ATCC 90030). MIC50 values were determined via fluorometric measurements, using resazurin solution [24, 25]. Ketoconazole and fluconazole were used as a standard drug in the activity test.
(§2) Microbiological studies were performed according to the EUCAST definitive (EDef 7.1) method for C. albicans (ATCC 24433), C. krusei (ATCC 6258), C. parapsilosis (ATCC 22019), and C. glabrata (ATCC 90030). Fluconazole and ketoconazole were used as control drugs. Two MIC readings were carried out for each chemical agent. The yeasts were maintained in RPMI after overnight incubation at 37 °C. The inocula of test microorganisms was adjusted to match the turbidity of a MacFarland 0.5 standard tube as determined with a spectrophotometer, and the final inoculum size was 0.5–2.5 × 10^5 cfu/mL for the antifungal assay. Testing was carried out in RPMI at pH = 7, and the two-fold serial dilutions technique was applied. The last well on the microplates containing only inoculated broth was kept as a control, and the last well with no growth of microorganism was recorded to represent the MIC50 expressed in μg/mL. For the antifungal assays, the compounds were dissolved in DMSO. Further dilutions of the compounds and standard drugs in the test medium were prepared at the required quantities of 800, 400, 200, 100, 50, 25, 12.5, 6.25, 3.125, 1.5625, and 0.78 μg/mL concentrations RPMI. The completed plates were incubated for 24 h. At the end of the incubation, resazurin (20 µg/mL) was added into each well to control the growth in the wells. Completed plates were incubated for 2 h. MIC50 values were determined using a microplate reader at […].

C. glabrata (ATCC 90030) = assay: as above; type: cell-based; conditions: Nakaseomyces glabratus, ATCC90030, RPMI pH 7, 24 h
Protocol: as §1, §2

C. albicans (ATCC 24433) = assay: as above; type: cell-based; conditions: Candida albicans, ATCC24433, RPMI pH 7, 24 h
Protocol: as §1, §2

C. krusei (ATCC 6258) = assay: as above; type: cell-based; conditions: Pichia kudriavzevii, ATCC6258, RPMI pH 7, 24 h
Protocol: as §1, §2

[2] = system: NIH/3T3 mouse embryonic fibroblast cell line; assay: MTT cytotoxicity test; type: cell-based; conditions: NIH3T3, cytotoxic activity, NIH/3T3 cell line
Protocol: The main cause of failure in all stages of the new drug development process is toxicity. Early identification of toxicities of drug candidates is very important in terms of drug development studies. […] Cytotoxicity of selected compounds (3a–3d), displaying strong anticandidal activity and good predicted pharmacokinetics, was determined against NIH/3T3 mouse embryonic fibroblast cell lines (ATCC CRL1658).
Cytotoxicity was tested using the NIH/3T3 mouse embryonic fibroblast cell line (ATCC® CRL-1658™, London, UK). NIH/3T3 cells were incubated according to the supplier’s recommendations. NIH/3T3 cells were seeded at 1 × 10^4 cells into each well of the 96-well plates. The MTT assay was performed as previously described. The compounds were tested between 800 and 0.78 µg/mL concentrations. Inhibition % was calculated for each concentration according to the formula below, and IC50 values were determined by plotting a dose–response curve of inhibition % versus compound concentrations tested.
% inhibition = 100 − (mean sample × 100/mean solvent).

[3] = system: ergosterol biosynthesis in C. krusei; assay: Quantification of ergosterol level by LC-MS-MS; type: cell-based; conditions: Pichia kudriavzevii, mean ± SD, quadruplicate
Description: Sterols are neutral lipids of eukaryotic cells, among which ergosterol is the main constituent of fungal membranes. Ergosterol has biological functions such as membrane fluidity, regulation, activity and distribution of integral membrane proteins, and control of the cell cycle. The critical role of sterols in maintenance of cell membranes make ergosterol and its biosynthetic pathway essential for fungal growth, and a primary target for antifungal drugs to treat fungal infections. From this point of view, we performed an LCMSMS (Shimadzu LCMS 8040, Kyoto, Japan) method for quantitative determination of ergosterol content of C. krusei as reported in our recent study. Compounds 3a–3d, displaying the best anticandidal activity and low cytotoxic effect, and reference agents ketoconazole and fluconazole were tested at concentrations of 0.78–3.12 µg/mL. Ergosterol standard (Product No.: 45480, Sigma-Aldrich, Darmstadt, Germany) was used for the quantification of ergostrerol in samples, which were treated with reference agents and Compounds 3a–3d. Ergosterol quantity of the negative control was considered as 100%. Quadruplicate analyses were performed for all concentrations and the obtained data were expressed as mean ± standard deviation (SD) (Table 2).
Extraction of total sterols from C. krusei was performed as recorded by Breivik and Owades. Quantification of ergosterol level in this extract was carried out in accordance with our recently described method.

Row | SMILES | melting point [°C] | MIC50 [1] [µg/mL] | MIC50 (C. glabrata (ATCC 90030)) [µg/mL] | MIC50 (C. albicans (ATCC 24433)) [µg/mL] | MIC50 (C. krusei (ATCC 6258)) [µg/mL] | IC50 [2] [µg/mL] | inhibition at 0.78 µg/mL [3] [%] | inhibition at 1.56 µg/mL [3] [%] | inhibition at 3.12 µg/mL [3] [%]
1 | Cc1ccc(Oc2ccc(C=CC(=O)c3ccc(-n4ccnc4)cc3)cc2)cc1 [Compound 3a, 1-(4-(1H-Imidazol-1-yl)phenyl)-3-(4-(p-tolyloxy)phenyl)prop-2-en-1-one] | 146 to 148 | 0.78 (≈ 2.05 µM) | 3.12 (≈ 8.21 µM) | 3.12 (≈ 8.21 µM) | 0.78 (≈ 2.05 µM) | > 500 | 66.2 ± 2.23 | 79.5 ± 3.16 | 86.5 ± 4.77
2 | Cc1ccc(Sc2ccc(C=CC(=O)c3ccc(-n4ccnc4)cc3)cc2)cc1 [Compound 3b, 1-(4-(1H-Imidazol-1-yl)phenyl)-3-(4-(p-tolylthio)phenyl)prop-2-en-1-one] | 168 to 169 | 0.78 (≈ 1.97 µM) | 3.12 (≈ 7.88 µM) | 3.12 (≈ 7.88 µM) | 0.78 (≈ 1.97 µM) | > 500 | 68.6 ± 1.98 | 81.6 ± 4.07 | 83.5 ± 3.18
3 | O=C(C=Cc1ccc(N2CCCC2)cc1)c1ccc(-n2ccnc2)cc1 [Compound 3e, 1-(4-(1H-Imidazol-1-yl)phenyl)-3-(4-(pyrrolidin-1-yl)phenyl)prop-2-en-1-one] | 186 to 188 | 12.5 (≈ 36.4 µM) | 12.5 (≈ 36.4 µM) | 50 (≈ 146 µM) | 12.5 (≈ 36.4 µM) | – | – | – | –
4 | O=C(C=Cc1ccc(N2CCOCC2)cc1)c1ccc(-n2ccnc2)cc1 [Compound 3f, 1-(4-(1H-Imidazol-1-yl)phenyl)-3-(4-morpholinophenyl)prop-2-en-1-one] | 214 to 215 | 12.5 (≈ 34.8 µM) | 12.5 (≈ 34.8 µM) | 50 (≈ 139 µM) | 12.5 (≈ 34.8 µM) | – | – | – | –
5 | O=C(C=Cc1ccc(N2CCCCC2)cc1)c1ccc(-n2ccnc2)cc1 [Compound 3g, 1-(4-(1H-Imidazol-1-yl)phenyl)-3-(4-(piperidin-1-yl)phenyl)prop-2-en-1-one] | 198 to 199 | 12.5 (≈ 35 µM) | 12.5 (≈ 35 µM) | 50 (≈ 140 µM) | 25 (≈ 69.9 µM) | – | – | – | –
6 | CC1CCCN(c2ccc(C=CC(=O)c3ccc(-n4ccnc4)cc3)cc2)C1 (stereo not drawn) [Compound 3h, 1-(4-(1H-Imidazol-1-yl)phenyl)-3-(4-(3-methylpiperidin-1-yl)phenyl)prop-2-en-1-one] | 163 to 165 | 12.5 (≈ 33.6 µM) | 12.5 (≈ 33.6 µM) | 50 (≈ 135 µM) | 25 (≈ 67.3 µM) | – | – | – | –
7 | CC1CCN(c2ccc(C=CC(=O)c3ccc(-n4ccnc4)cc3)cc2)CC1 [Compound 3i, 1-(4-(1H-Imidazol-1-yl)phenyl)-3-(4-(4-methylpiperidin-1-yl)phenyl)prop-2-en-1-one] | 189 to 191 | 12.5 (≈ 33.6 µM) | 12.5 (≈ 33.6 µM) | 50 (≈ 135 µM) | 12.5 (≈ 33.6 µM) | – | – | – | –
8 | CC1CC(C)CN(c2ccc(C=CC(=O)c3ccc(-n4ccnc4)cc3)cc2)C1 (stereo not drawn) [Compound 3j, 1-(4-(1H-Imidazol-1-yl)phenyl)-3-(4-(3,5-dimethylpiperidin-1-yl)phenyl)prop-2-en-1-one] | 160 to 161 | 25 (≈ 64.8 µM) | 12.5 (≈ 32.4 µM) | 50 (≈ 130 µM) | 25 (≈ 64.8 µM) | – | – | – | –
9 | O=C(C=Cc1ccc(N2CCC(Cc3ccccc3)CC2)cc1)c1ccc(-n2ccnc2)cc1 [Compound 3k, 1-(4-(1H-Imidazol-1-yl)phenyl)-3-(4-(4-benzylpiperidin-1-yl)phenyl)prop-2-en-1-one] | 178 to 180 | 12.5 (≈ 27.9 µM) | 25 (≈ 55.9 µM) | 50 (≈ 112 µM) | 25 (≈ 55.9 µM) | – | – | – | –
10 | CN1CCN(c2ccc(C=CC(=O)c3ccc(-n4ccnc4)cc3)cc2)CC1 [Compound 3l, 1-(4-(1H-Imidazol-1-yl)phenyl)-3-(4-(4-methylpiperazin-1-yl)phenyl)prop-2-en-1-one] | 205 to 207 | 12.5 (≈ 33.6 µM) | 12.5 (≈ 33.6 µM) | 50 (≈ 134 µM) | 25 (≈ 67.1 µM) | – | – | – | –
11 | CCN1CCN(c2ccc(C=CC(=O)c3ccc(-n4ccnc4)cc3)cc2)CC1 [Compound 3m, 1-(4-(1H-Imidazol-1-yl)phenyl)-3-(4-(4-ethylpiperazin-1-yl)phenyl)prop-2-en-1-one] | 188 to 189 | 25 (≈ 64.7 µM) | 12.5 (≈ 32.3 µM) | 50 (≈ 129 µM) | 12.5 (≈ 32.3 µM) | – | – | – | –
12 | CN(C)CCN1CCN(c2ccc(C=CC(=O)c3ccc(-n4ccnc4)cc3)cc2)CC1 [Compound 3n, 1-(4-(1H-Imidazol-1-yl)phenyl)-3-(4-(4-(2-(dimethylamino)ethyl)piperazin-1-yl)phenyl)prop-2-en-1-one] | 146 to 149 | 12.5 (≈ 29.1 µM) | 12.5 (≈ 29.1 µM) | 50 (≈ 116 µM) | 12.5 (≈ 29.1 µM) | – | – | – | –
13 | CN(C)CCCN1CCN(c2ccc(C=CC(=O)c3ccc(-n4ccnc4)cc3)cc2)CC1 [Compound 3o, 1-(4-(1H-Imidazol-1-yl)phenyl)-3-(4-(4-(3-(dimethylamino)propyl)piperazin-1-yl)phenyl)prop-2-en-1-one] | 138 to 141 | 12.5 (≈ 28.2 µM) | 12.5 (≈ 28.2 µM) | 50 (≈ 113 µM) | 12.5 (≈ 28.2 µM) | – | – | – | –
14 | OC(Cn1cncn1)(Cn1cncn1)c1ccc(F)cc1F [Fluconazole, reference compound] | – | 0.78 (≈ 2.55 µM) | 1.56 (≈ 5.09 µM) | 0.78 (≈ 2.55 µM) | 1.56 (≈ 5.09 µM) | – | 61.7 ± 1.7 | 70.1 ± 3.22 | 82.1 ± 4.45
15 | CC(=O)N1CCN(c2ccc(OCC3COC(Cn4ccnc4)(c4ccc(Cl)cc4Cl)O3)cc2)CC1 (stereo not drawn) [Ketoconazole, reference compound] | – | 1.56 (≈ 2.94 µM) | 1.56 (≈ 2.94 µM) | 0.78 (≈ 1.47 µM) | 1.56 (≈ 2.94 µM) | – | 61 ± 2.94 | 73.1 ± 4.16 | 84.6 ± 3.01
